Experimental data taken from PubChem BioAssay (NCI).
Values joined by “and” are separate entries in the source; they are usually repeats but may differ in a detail not shown here. Identical values can stand only once.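 Method: 48-hour compound exposure of cells in 96-well plates, five concentrations, linear interpolation of endpoints. GI50: concentration for 50% inhibition of growth. TGI denotes the concentration required for complete inhibition of growth.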

These compounds were tested on OVCAR-5 ovarian (assay: inhibition of tumour cell growth, NCI panel, 48 h).
`CC1(C)OC2C(CO[Si](C)(C)C(C)(C)C)OC(n3c(I)c(C#C[Si](C)(C)C)c(=O)[nH]c3=O)C2O1` (configuration not stated) showed a GI50 of 18.7 µM and a TGI of 42.8 µM.
`CN(C)CC[C@H](CSc1ccccc1)Nc1ccc(S(=O)(=O)NC(=O)c2ccc(N3CCN(Cc4ccccc4-c4ccc(Cl)cc4)CC3)cc2)cc1[N+](=O)[O-]` gave a GI50 of 5.07 µM and a TGI of 41.1 µM.
`COc1ccc(-c2ccc(=O)oc2C#Cc2cc(OC)c(OC)c(OC)c2)cc1O` gave a GI50 of 2.49 µM and a TGI of 33.9 µM.
In the case of `O=C(/C=C/c1ccc[nH]1)c1ccc(-n2ccc(C(F)(F)F)n2)cc1`, the GI50 is reported as over 100 µM and the TGI is reported as over 100 µM.
Compound `O=C(c1ccco1)c1c(C(F)(F)F)nc2ccc(Cl)cc2[n+]1[O-]` has a GI50 of over 100 µM and a TGI of over 100 µM.
`Clc1cc2c(c(CSc3nc4ccccc4n4cccc34)c1)OCOC2` gave a GI50 of over 100 µM and a TGI of over 100 µM.
`CN1CCN(c2ccc(Nc3cc(-c4cccc(-n5ccc6cc(C7CC7)cc(F)c6c5=O)c4CO)cn(C)c3=O)nc2)CC1` was tested, and the GI50 was 2.82 µM and the TGI was 9.75 µM.
In the case of `COc1ccc2nc3ccccc3c(NCc3ccc(F)cc3)c2c1`, the GI50 is reported as 2.25 µM and the TGI is reported as 8.21 µM.
With `COc1cc(N=Nc2ccc(O)c3ncccc23)c2ncccc2c1` the GI50 was 7.3 µM and the TGI was over 100 µM.
`CCn1c(O)c(/C=N/NC(=O)C(C)c2ccc(CC(C)C)cc2)sc1=S` (configuration not stated) gave a GI50 of 0.619 µM and a TGI of over 44.7 µM.
`C[C@@H]1C[C@@H]([C@@H](CC2CC(=O)NC(=O)C2)OC(=O)CC(=O)c2ccccc2)C(=O)[C@@H](C)C1` showed a GI50 of 0.662 µM and a TGI of over 100 µM.
With `Cc1nc(Nc2cccnc2)sc1C(=O)/C=C/c1ccc(F)cc1` the GI50 was 2.78 µM and the TGI was 23 µM.
For `N=c1c2c(-c3ccccc3)c(-c3ccccc3)n(Cc3ccccc3)c2ncn1C1CCC(O)CC1` (configuration not stated), the GI50 was 5.84 µM and the TGI was 22.4 µM.
In the case of `O=c1c(F)cn(Cc2ccc(C34CC5CC(CC(C5)C3)C4)c(O)c2)c(=O)n1Cc1ccc(C23CC4CC(CC(C4)C2)C3)c(O)c1`, the GI50 is reported as 13.5 µM and the TGI is reported as 28.1 µM.
`CCOC(=O)Nc1cc2c(c(N)n1)N=C(c1ccccc1)CO2` showed a GI50 of 1.15 µM and a TGI of 48.5 µM.
Work on `CC1CC2CCCC(O)=C2C(=O)O1` (configuration not stated) yielded a TGI of over 100 µM.
Work on `CC(C)(/C=C(\C#N)C(=O)N1CCC[C@@H](n2nc(-c3ccc(Oc4ccccc4)cc3F)c3c(N)ncnc32)C1)N1CCN(C2COC2)CC1` yielded a GI50 of 11.3 µM and a TGI of 24.1 µM.
Compound `O=c1oc2ccc(-c3ccc(F)cc3F)cc2c(=O)n1-c1cccc(C(F)(F)F)c1` has a GI50 of 4.11 µM and a TGI of over 100 µM.
`O=C(Cc1ccc(F)c(Cl)c1)Nc1cc(C2(C(F)(F)F)CC2)nn1CC1CCCCC1` showed a GI50 of 4.44 µM and a TGI of over 15 µM.
`NNC(=O)CNc1cccc(Br)c1` showed a TGI of over 100 µM.
In the case of `NC(N)=NCCCC(=O)O`, the TGI is reported as over 100 µM.
For `CCN1CCN(c2cc(C)c3cc(NC(=O)c4ccc(OC)c(OC)c4)ccc3n2)CC1`, the GI50 was 15.7 µM and the TGI was over 100 µM.
`COC(=O)c1c2c(c(C)[n+]([O-])c1C)C(=O)C=C(NCc1ccc(F)cc1)C2=O` was tested, and the GI50 was 1.39 µM and the TGI was 2.88 µM.
In the case of `CCCC(=O)Nc1cn(COC)c(C(=O)N2C[C@@H]3C[C@]34C2=CC(=O)c2[nH]cc(C)c24)n1`, the GI50 is reported as 3.3 µM and the TGI is reported as 50 µM and 9.52 µM.
Work on `CC(=O)Nc1ccc(-c2csc(Nc3cccc(-c4csc(C)n4)c3)n2)cc1` yielded a GI50 of 10 µM and a TGI of over 36.8 µM.

Each compound was assayed on A498 renal (assay: inhibition of tumour cell growth, NCI panel, 48 h).
With `CC1(C)OC2C(CO[Si](C)(C)C(C)(C)C)OC(n3c(I)c(C#C[Si](C)(C)C)c(=O)[nH]c3=O)C2O1` (configuration not stated) the GI50 was 32200 nM and the TGI was over 100 µM.
With `CN(C)CC[C@H](CSc1ccccc1)Nc1ccc(S(=O)(=O)NC(=O)c2ccc(N3CCN(Cc4ccccc4-c4ccc(Cl)cc4)CC3)cc2)cc1[N+](=O)[O-]` the GI50 was 97.1 nM and the TGI was 0.818 µM.
With `COc1ccc(-c2ccc(=O)oc2C#Cc2cc(OC)c(OC)c(OC)c2)cc1O` the GI50 was 2360 nM and the TGI was 24.9 µM.
`O=C(/C=C/c1ccc[nH]1)c1ccc(-n2ccc(C(F)(F)F)n2)cc1` showed a GI50 of over 100000 nM and a TGI of over 100 µM.
For `O=C(c1ccco1)c1c(C(F)(F)F)nc2ccc(Cl)cc2[n+]1[O-]`, the GI50 was 23100 nM and the TGI was 68 µM.
`Clc1cc2c(c(CSc3nc4ccccc4n4cccc34)c1)OCOC2` gave a GI50 of 22600 nM and a TGI of over 100 µM.
`CN1CCN(c2ccc(Nc3cc(-c4cccc(-n5ccc6cc(C7CC7)cc(F)c6c5=O)c4CO)cn(C)c3=O)nc2)CC1` was tested, and the GI50 was 2510 nM and the TGI was 9.26 µM.
Work on `COc1ccc2nc3ccccc3c(NCc3ccc(F)cc3)c2c1` yielded a GI50 of 1620 nM and a TGI of 5.74 µM.
For `COc1cc(N=Nc2ccc(O)c3ncccc23)c2ncccc2c1`, the GI50 was 24200 nM and the TGI was 93.5 µM.
Compound `CCn1c(O)c(/C=N/NC(=O)C(C)c2ccc(CC(C)C)cc2)sc1=S` (configuration not stated) has a GI50 of 243 nM and a TGI of 0.87 µM.
Compound `C[C@@H]1C[C@@H]([C@@H](CC2CC(=O)NC(=O)C2)OC(=O)CC(=O)c2ccccc2)C(=O)[C@@H](C)C1` has a GI50 of 177 nM and a TGI of 2.36 µM.
For `Cc1nc(Nc2cccnc2)sc1C(=O)/C=C/c1ccc(F)cc1`, the GI50 was 7610 nM and the TGI was 42.7 µM.
`N=c1c2c(-c3ccccc3)c(-c3ccccc3)n(Cc3ccccc3)c2ncn1C1CCC(O)CC1` (configuration not stated) was tested, and the GI50 was 345 nM and the TGI was 14.4 µM.
Work on `O=c1c(F)cn(Cc2ccc(C34CC5CC(CC(C5)C3)C4)c(O)c2)c(=O)n1Cc1ccc(C23CC4CC(CC(C4)C2)C3)c(O)c1` yielded a GI50 of 14200 nM and a TGI of 27.5 µM.
For `CCOC(=O)Nc1cc2c(c(N)n1)N=C(c1ccccc1)CO2`, the GI50 was 147 nM and the TGI was 6.92 µM.
`CC1CC2CCCC(O)=C2C(=O)O1` (configuration not stated) showed a TGI of over 100 µM.
Work on `CC(C)(/C=C(\C#N)C(=O)N1CCC[C@@H](n2nc(-c3ccc(Oc4ccccc4)cc3F)c3c(N)ncnc32)C1)N1CCN(C2COC2)CC1` yielded a GI50 of 1780 nM and a TGI of 6.25 µM.
In the case of `O=c1oc2ccc(-c3ccc(F)cc3F)cc2c(=O)n1-c1cccc(C(F)(F)F)c1`, the GI50 is reported as 210 nM and the TGI is reported as 0.888 µM.
Compound `O=C(Cc1ccc(F)c(Cl)c1)Nc1cc(C2(C(F)(F)F)CC2)nn1CC1CCCCC1` has a GI50 of 1520 nM and a TGI of 4.89 µM.
Work on `NNC(=O)CNc1cccc(Br)c1` yielded a TGI of over 100 µM.
Compound `NC(N)=NCCCC(=O)O` has a TGI of over 100 µM.
With `CCN1CCN(c2cc(C)c3cc(NC(=O)c4ccc(OC)c(OC)c4)ccc3n2)CC1` the GI50 was 16400 nM and the TGI was 41.1 µM.
For `COC(=O)c1c2c(c(C)[n+]([O-])c1C)C(=O)C=C(NCc1ccc(F)cc1)C2=O`, the GI50 was 1260 nM and the TGI was 2.56 µM.
With `CCCC(=O)Nc1cn(COC)c(C(=O)N2C[C@@H]3C[C@]34C2=CC(=O)c2[nH]cc(C)c24)n1` the TGI was 18.2 µM.
Compound `CC(=O)Nc1ccc(-c2csc(Nc3cccc(-c4csc(C)n4)c3)n2)cc1` has a GI50 of 6920 nM and a TGI of over 29.1 µM.

What follows are compounds tested on SNB-19 CNS (assay: inhibition of tumour cell growth, NCI panel, 48 h).
Compound `CC1(C)OC2C(CO[Si](C)(C)C(C)(C)C)OC(n3c(I)c(C#C[Si](C)(C)C)c(=O)[nH]c3=O)C2O1` (configuration not stated) has a GI50 of over 100 µM and a TGI of over 100 µM.
For `CN(C)CC[C@H](CSc1ccccc1)Nc1ccc(S(=O)(=O)NC(=O)c2ccc(N3CCN(Cc4ccccc4-c4ccc(Cl)cc4)CC3)cc2)cc1[N+](=O)[O-]`, the GI50 was 4.68 µM and the TGI was over 100 µM.
Work on `COc1ccc(-c2ccc(=O)oc2C#Cc2cc(OC)c(OC)c(OC)c2)cc1O` yielded a GI50 of 0.612 µM and a TGI of over 100 µM.
`O=C(/C=C/c1ccc[nH]1)c1ccc(-n2ccc(C(F)(F)F)n2)cc1` was tested, and the GI50 was over 100 µM and the TGI was over 100 µM.
For `O=C(c1ccco1)c1c(C(F)(F)F)nc2ccc(Cl)cc2[n+]1[O-]`, the GI50 was over 100 µM and the TGI was over 100 µM.
For `Clc1cc2c(c(CSc3nc4ccccc4n4cccc34)c1)OCOC2`, the GI50 was 41 µM and the TGI was over 100 µM.
For `CN1CCN(c2ccc(Nc3cc(-c4cccc(-n5ccc6cc(C7CC7)cc(F)c6c5=O)c4CO)cn(C)c3=O)nc2)CC1`, the GI50 was 3.15 µM and the TGI was 15.4 µM.
`COc1ccc2nc3ccccc3c(NCc3ccc(F)cc3)c2c1` gave a GI50 of 2.04 µM and a TGI of 7.62 µM.
Compound `COc1cc(N=Nc2ccc(O)c3ncccc23)c2ncccc2c1` has a GI50 of 4.11 µM and a TGI of over 100 µM.
Work on `CCn1c(O)c(/C=N/NC(=O)C(C)c2ccc(CC(C)C)cc2)sc1=S` (configuration not stated) yielded a GI50 of 0.433 µM and a TGI of over 41.8 µM.
For `C[C@@H]1C[C@@H]([C@@H](CC2CC(=O)NC(=O)C2)OC(=O)CC(=O)c2ccccc2)C(=O)[C@@H](C)C1`, the GI50 was 0.774 µM and the TGI was over 100 µM.
Work on `Cc1nc(Nc2cccnc2)sc1C(=O)/C=C/c1ccc(F)cc1` yielded a GI50 of 3.34 µM and a TGI of 15.9 µM.
